According to US6251919A, “Heterocyclic substituted aniline calcium channel blockers” (Warner-Lambert, priority 1999, dated 2001):
Values joined by “and” are separate entries in the source; they are usually repeats but may differ in a detail not shown here. Identical values can stand only once.

Biological target: T1, N-type Ca^2+ channel in IMR-32 cells (Homo sapiens, UniProt Q00975)
T1 construct: host or cells: IMR-32 (differentiated with dibutyryl cAMP and bromodeoxyuridine)
Experiment: N-type Ca2+ channel blockade in IMR-32 cells (fluorescent Ca2+ indicator Indo-1)
Assay type: cell-based
Conditions: 5 μM nitrendipine present; for inhibition at 1 µM: IMR-32, 1 μM; for inhibition at 10 µM: IMR-32, 10 μM

T1 sequence (Q00975 whole entry): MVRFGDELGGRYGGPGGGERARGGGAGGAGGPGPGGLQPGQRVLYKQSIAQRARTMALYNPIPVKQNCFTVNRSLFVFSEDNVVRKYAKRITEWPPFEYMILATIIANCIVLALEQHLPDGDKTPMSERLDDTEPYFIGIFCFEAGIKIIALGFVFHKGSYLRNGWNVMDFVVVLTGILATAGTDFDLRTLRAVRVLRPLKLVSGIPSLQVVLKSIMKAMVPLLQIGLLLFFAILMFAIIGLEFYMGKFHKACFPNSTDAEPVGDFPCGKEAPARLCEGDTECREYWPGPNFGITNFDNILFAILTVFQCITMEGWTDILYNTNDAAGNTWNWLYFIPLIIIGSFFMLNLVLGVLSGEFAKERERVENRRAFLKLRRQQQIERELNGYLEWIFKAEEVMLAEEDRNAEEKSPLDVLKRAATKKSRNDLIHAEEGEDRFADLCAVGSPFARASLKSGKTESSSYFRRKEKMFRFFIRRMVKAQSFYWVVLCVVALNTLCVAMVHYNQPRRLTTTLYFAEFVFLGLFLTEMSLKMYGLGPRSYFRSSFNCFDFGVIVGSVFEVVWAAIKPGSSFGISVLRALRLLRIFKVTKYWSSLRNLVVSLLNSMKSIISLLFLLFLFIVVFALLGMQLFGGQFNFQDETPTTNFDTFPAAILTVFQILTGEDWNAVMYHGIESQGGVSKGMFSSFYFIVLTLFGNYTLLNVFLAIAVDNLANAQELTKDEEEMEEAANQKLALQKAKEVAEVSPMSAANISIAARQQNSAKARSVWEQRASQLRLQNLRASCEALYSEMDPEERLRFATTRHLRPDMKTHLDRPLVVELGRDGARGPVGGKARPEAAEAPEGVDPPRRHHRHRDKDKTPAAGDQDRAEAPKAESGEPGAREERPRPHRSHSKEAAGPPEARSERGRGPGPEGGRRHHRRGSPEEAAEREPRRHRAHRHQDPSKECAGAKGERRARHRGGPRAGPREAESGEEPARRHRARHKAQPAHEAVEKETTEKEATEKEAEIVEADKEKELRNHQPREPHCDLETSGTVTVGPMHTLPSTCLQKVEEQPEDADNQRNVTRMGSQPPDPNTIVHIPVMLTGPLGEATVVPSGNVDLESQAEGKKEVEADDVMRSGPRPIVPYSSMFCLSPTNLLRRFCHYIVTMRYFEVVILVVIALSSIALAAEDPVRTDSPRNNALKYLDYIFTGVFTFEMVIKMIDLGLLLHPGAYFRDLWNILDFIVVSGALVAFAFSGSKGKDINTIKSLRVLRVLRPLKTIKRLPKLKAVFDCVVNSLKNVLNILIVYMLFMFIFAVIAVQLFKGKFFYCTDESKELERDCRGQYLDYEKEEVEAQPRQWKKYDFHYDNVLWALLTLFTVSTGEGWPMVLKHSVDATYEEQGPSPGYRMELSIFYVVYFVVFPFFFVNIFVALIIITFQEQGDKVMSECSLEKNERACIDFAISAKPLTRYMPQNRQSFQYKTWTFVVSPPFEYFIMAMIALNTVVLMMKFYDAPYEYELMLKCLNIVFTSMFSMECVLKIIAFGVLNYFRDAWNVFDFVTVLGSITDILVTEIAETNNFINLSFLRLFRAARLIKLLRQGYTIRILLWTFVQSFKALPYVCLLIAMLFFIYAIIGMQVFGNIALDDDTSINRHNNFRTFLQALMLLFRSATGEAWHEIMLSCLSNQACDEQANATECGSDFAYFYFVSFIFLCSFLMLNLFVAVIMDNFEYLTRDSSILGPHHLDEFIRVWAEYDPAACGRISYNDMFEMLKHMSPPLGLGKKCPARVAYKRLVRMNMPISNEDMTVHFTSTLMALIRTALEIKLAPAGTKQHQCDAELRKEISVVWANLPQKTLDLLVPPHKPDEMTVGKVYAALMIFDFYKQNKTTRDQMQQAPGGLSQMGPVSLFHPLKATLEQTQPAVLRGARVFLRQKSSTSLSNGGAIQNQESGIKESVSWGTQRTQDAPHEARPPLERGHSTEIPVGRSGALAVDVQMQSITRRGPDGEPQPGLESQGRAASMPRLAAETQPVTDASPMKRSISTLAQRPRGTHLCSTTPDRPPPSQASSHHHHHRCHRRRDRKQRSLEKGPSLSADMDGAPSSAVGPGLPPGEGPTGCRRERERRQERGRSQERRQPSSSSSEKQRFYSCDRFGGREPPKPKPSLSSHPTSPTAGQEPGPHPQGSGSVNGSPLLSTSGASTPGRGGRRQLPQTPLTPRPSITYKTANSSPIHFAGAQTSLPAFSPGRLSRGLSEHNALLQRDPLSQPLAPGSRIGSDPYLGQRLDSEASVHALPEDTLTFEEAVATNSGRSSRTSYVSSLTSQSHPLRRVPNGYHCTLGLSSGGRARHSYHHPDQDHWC

SMILES	inhibition at 1 µM	inhibition at 10 µM	IC50	IMR 32 % of Blockade @ 1 μM (1 μM)
CC(C)CCN(c1ccc(OCC2CCCCC2)cc1)C1CCN(CCC(C)(C)C)CC1 [Example 42, (4-Cyclohexylmethoxy-phenyl)-[1-(3,3-dimethyl-butyl)-piperidin-4-yl]-(3-methyl-butyl)-amine]	60%	81%	–	–
CC(C)=CCN(c1ccc(OCc2ccccc2)cc1)C1CCN(Cc2ccccn2)CC1 [Example 9, (4-Benzyloxy-phenyl)-(3-methyl-but-2-enyl)-(1-pyridin-2-ylmethyl-piperidin-4-yl)-amine]	30%	100%	–	–
CC(C)=CCN(c1ccc(OCc2ccccc2)cc1)C1CCN(CCc2ccccc2)CC1 [Example 23, (4-Benzyloxy-phenyl)-(3-methyl-but-2-enyl)-(1-phenethyl-piperidin-4-yl)-amine]	–	–	300 nM	–
CC(C)=CCN(c1ccc(OCc2ccccc2)cc1)C1CCN(C2CCOCC2)CC1 [Example 10, (4-Benyloxy-phenyl)-(3-methyl-but-2-enyl)-[1-(tetrahydro-pyran4-yl)-piperidin-4-yl]-amine]	15%	62%	–	–
CC(C)=CCN(c1cccc(OCc2ccccc2)c1)C1CCN(CCC(C)(C)C)CC1 [Example 46, (3-Benzyloxy-phenyl)-[1-(3,3-dimethyl-butyl)-piperidin-4-yl]-(3-methyl-but-2-enyl)-amine]	55%	98%	–	–
CC(C)=CCN(c1ccc(C(C)C)cc1)C1CCN(CCC(C)(C)C)CC1 [Example 26, [1-(3,3-Dimethyl-butyl)-piperidin-4-yl]-(4-isopropyl-phenyl)-(3-methyl-but-2-enyl)-amine]	43%	–	–	–
CC(C)=CCN(c1ccc(OCc2ccccc2)cc1)C1CCN(Cc2ccc(C(C)(C)C)cc2)CC1 [Example 3, (4-Benzyloxy-phenyl)-[1-(4-tert-butyl-benzyl)-piperidin-4-yl]-(3-methyl-but-2-enyl)-amine]	96%	–	–	–
CC(C)=CCN(c1ccc(CCC(C)(C)C)cc1)C1CCN(CCC(C)C)CC1 [Example 37, [4-(3,3-Dimethyl-butyl)-phenyl]-(3-methyl-but-2-enyl)-[1-(3-methyl-butyl)-piperidin-4-yl]-amine]	31%	92%	–	–
CC(C)=CCN(c1ccc(CCC(C)(C)C)cc1)C1CCN(Cc2ccc(N(C)C)cc2)CC1 [Example 39, [1-(4-Dimethylamino-benzyl)-piperidin-4-yl]-[4-(3,3-dimethyl-butyl)-phenyl]-(3-methyl-but-2-enyl)-amine]	–	–	–	85% and 60%
CC(C)=CCN(c1ccc(OCc2ccccc2)cc1)C1CCN(C(=O)C2CCCCN2CCC(C)C)CC1 (stereo not drawn) [Example 11, {4-[(4-Benzyloxy-phenyl)-(3-methyl-but-2-enyl)-amino]-piperidin-1-yl}-[1-(3-methyl-butyl)-piperidin-2-yl]-methanone]	41%	80%	–	–
CC(C)=CCN(c1ccc(C(C)C)cc1)C1CCN(C(=O)[C@@H](O)CC(C)C)CC1 [Example 45, (S)-2-Hydroxy-1-{4-[(4-isopropyl-phenyl)-(3-methyl-but-2-enyl)-arnino]-piperidin-1-yl}-4-methyl-pentan-1-one]	28%	85%	–	–
CC(C)=CCN(c1ccc(C(C)C)cc1)C1CCN(Cc2c[nH]cn2)CC1 [Example 31, [1-(1H-Imidazol-4-ylmethyl)-piperidin-4-yl]-(4-isopropyl-phenyl)-(3-methyl-but-2-enyl)-amine]	7%	62%	–	–
CC(C)=CCN(c1ccc(OCc2ccccc2)cc1)C1CCN(Cc2ccc(Br)cc2)CC1 [Example 4, (4-Benzyloxy-phenyl)-[1-(4-bromo-benzyl)-piperidin4-yl]-(3-methyl-but-2-enyl)-amine]	63%	94%	–	–
CC(C)CCN1CCC(N(CCC(C)C)c2ccc(OCC3CCCCC3)cc2)CC1 [Example 40, (4-Cyclohexylmethoxy-phenyl)-(3-methyl-butyl)-[1-(3-methyl-butyl)-piperidin-4-yl]-amine]	72%	–	–	–
CC(C)=CCN(c1ccc(OCc2ccccc2)cc1)C1CCN(Cc2ccc(F)cc2)CC1 [Example 25, (4-Benzyloxy-phenyl)-[1-(4-fluoro-benzyl)-piperidin4-yl]-(3-methyl-but-2-enyl)-amine]	62%	–	–	–
CC(C)=CCN(c1ccc(OCc2ccccc2)cc1)C1CCN(Cc2ccc(S(C)(=O)=O)cc2)CC1 [Example 24]	–	–	1800 nM	–
CC(C)=CCN(c1ccc(OC(C)C)cc1)C1CCN(CCC(C)C)CC1 [Example 34, (4-Isopropoxy-phenyl)-(3-methyl-but-2-enyl)-[1-(3-methyl-butyl)-piperidin-4-yl]-amine]	23%	76%	–	–
CC(C)=CCN(c1ccc(OCc2ccccc2)cc1)C1CCN(C(=O)C2C(C)CCCN2CCC(C)C)CC1 (stereo not drawn) [Example 18, {4-[(4-Benzyloxy-phenyl)-(3-methyl-but-2-enyl)-amino]-piperidin-1-yl}-[3-methyl-1-(3-methyl-butyl)-piperidin-2-yl]-methanone]	60%	88%	–	–

SMILES	inhibition at 1 µM	inhibition at 10 µM	IC50	IMR 32 % of Blockade @ 1 μM (1 μM)
CC(C)=CCN(c1ccc(OCc2ccccc2)cc1)C1CCN(CCCc2ccccc2)CC1 [Example 22, (4-Benzyloxy-phenyl)-(3-methyl-but-2-enyl)-[1-(3-phenyl-propyl)-piperidin-4-yl]-amine]	–	–	500 nM	–
CC(C)=CCN(c1ccc(C(C)C)cc1)C1CCN(Cc2ccc(F)cc2)CC1 [Example 29, [1-(4-Fluoro-benzyl)-piperidin-4-yl]-(4-isopropyl-phenyl)-(3-methyl-but-2-enyl)-amine]	17%	84%	–	–
CC(C)=CCN(c1ccc(OCc2ccccc2)cc1)C1CCCN(Cc2ccc(C(C)(C)C)cc2)C1 (stereo not drawn) [Example 50, (4-Benzyloxy-phenyl)-[1-(4-tert-butyl-benzyl)-piperidin-3-yl]-(3-methyl-but-2-enyl)-amine]	86%	96%	–	–
CC(C)=CCN(c1ccc(OCc2ccccc2)cc1)C1CCN(C(=O)C2CCCN(CCC(C)C)C2)CC1 (stereo not drawn) [Example 12, {4-[(4-Benzyloxy-phenyl)-(3-methyl-but-2-enyl)-amino]-piperidin-1-yl}-[1-(3-methyl-butyl)-piperidin-3-yl]-methanone]	49%	75%	–	–
CC(C)=CCN(c1ccc(C(C)C)cc1)C1CCN(CCC(C)C)CC1 [Example 28, (4-Isopropyl-phenyl)-(3-methyl-but-2-enyl)-[1-(3-methyl-butyl)-piperidin-4-yl]-amine]	41%	–	–	–
CC(C)=CCN(c1ccc(C(C)C)cc1)C1CCN(C(C)CO)CC1 (stereo not drawn) [Example 32, 2-{4-[(4-lsopropyl-phenyl)-(3-methyl-but-2-enyl)-amino]-piperidin-1-yl}-propan-1-ol]	0%	70%	–	–
CC(C)CCN(c1ccc(OCc2ccc(F)cc2)cc1)C1CCN(CCC(C)(C)C)CC1 [Example 43, [1-(3,3-Dimethyl-butyl)-piperidin-4-yl]-[4-(4-fluoro-benzyloxy)-phenyl]-(3-methyl-butyl)-amine]	65%	99%	–	–
CC(C)=CCN(c1ccc(C(C)C)cc1)C1CCN(CCC(C)O)CC1 (stereo not drawn) [Example 27, 4-{4[(4Isopropyl-phenyl)-(3-methyl-but-2-enyl)-amino]-piperidin-1-yl}-butan-2ol]	15%	–	–	–
CC(C)=CCN(c1ccc(OCc2ccccc2)cc1)C1CCN(C(=O)C2CCN(CCC(C)C)CC2)CC1 [Example 13, {4-[(4-Benzyloxy-phenyl)-(3-methyl-but-2-enyl)-amino]-piperidin-1-yl}-[1-(3-methyl-butyl)-piperidin-4-yl]-methanone]	37%	75%	–	–
CC(C)=CCN(c1ccc(OC(C)C)cc1)C1CCN(CCC(C)(C)C)CC1 [Example 36]	26%	74%	–	–
CC(C)=CCN(c1ccc(OCc2ccccc2)cc1)C1CCCN(Cc2ccccc2)C1 (stereo not drawn) [Example 49, (4-Benzyloxy-phenyl)-(1-benzyl-piperidin-3-yl)-(3-methyl-but-2-enyl)-amine]	–	–	1200 nM	–
CC(C)=CCN(c1ccc(OCc2ccccc2)cc1)C1CCN(C(=O)C2CC(C)CCN2CCC(C)C)CC1 (stereo not drawn) [Example 17, {4-[(4-Benzyloxy-phenyl)-(3-methyl-but-2-enyl)-amino]-piperidin-1-yl}-[4-methyl-1-(3-methyl-butyl)-piperidin-2-yl]-methanone]	86%	76%	–	–
CC(C)=CCN(c1ccc(CCC(C)(C)C)cc1)C1CCN(CCC(C)(C)C)CC1 [Example 38, [4-(3,3-Dimethyl-butyl)-phenyl]-[1-(3,3-dimethyl-butyl)-piperidin-4-yl]-(3-methyl-but-2-enyl)-amine]	38%	83%	–	–
CC(C)=CCN(c1ccc(OCc2ccccc2)cc1)C1CCN(C(=O)C2CN(C)CCN2CCC(C)C)CC1 (stereo not drawn) [Example 14, {4-[(4-Benzyloxy-phenyl)-(3-methyl-but-2-enyl)-amino]-piperidin-1-yl}-[4-methyl-1-(3-methyl-butyl)-piperazin-2-yl]-methanone]	44%	88%	–	–
CC(C)=CCN(c1ccc(C(C)C)cc1)C1CCN(Cc2cccnc2)CC1 [Example 30, (4-Isopropyl-phenyl)-(3-methyl-but-2-enyl)-(1-pyridin-3-ylmethyl-piperidin-4-yl)-amine]	18%	79%	–	–
CC(C)=CCN(c1ccc(OCc2ccccc2)cc1)C1CCN(Cc2ccco2)CC1 [Example 21, (4-Benzyloxy-phenyl)-(1-furan-2-ylmethyl-piperidin-4-yl)-(3-methyl-but-2-enyl)-amine]	–	–	3900 nM	–
CC(C)=CCN(c1ccc(OC(C)C)cc1)C1CCN(Cc2ccc(F)cc2)CC1 [Example 35, [1-(4-Fluoro-benzyl)-piperidin-4-yl]-(4-isopropoxy-phenyl)-(3-methyl-but-2-enyl)-amine]	37%	–	–	–
